Measured values as given in patent US20220009920A1 (GB005, Inc., priority 2020, published 2022).

Experiments:
Assay in all cases: Large panel kinase profiling
Assay type in all cases: biochemical
Conditions in all cases: 1 μM test article, 1 mM ATP
[1] = target: PRKCB1/PKCB1 (Homo sapiens, UniProt P05771)
In short: (§1)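 Continuous-read kinase assay: chelation-sensor peptide, 1 mM ATP, compound at 1 μM. Plates kept at 30° C.; fluorescence sampled at 1-min intervals (360/485 nm).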

[2] = target: T1, MAP3K5 (Homo sapiens, UniProt Q99683)
T1 construct: AssayQuant Technologies, Inc. (service provider)
T1 sequence (Q99683 1-1374): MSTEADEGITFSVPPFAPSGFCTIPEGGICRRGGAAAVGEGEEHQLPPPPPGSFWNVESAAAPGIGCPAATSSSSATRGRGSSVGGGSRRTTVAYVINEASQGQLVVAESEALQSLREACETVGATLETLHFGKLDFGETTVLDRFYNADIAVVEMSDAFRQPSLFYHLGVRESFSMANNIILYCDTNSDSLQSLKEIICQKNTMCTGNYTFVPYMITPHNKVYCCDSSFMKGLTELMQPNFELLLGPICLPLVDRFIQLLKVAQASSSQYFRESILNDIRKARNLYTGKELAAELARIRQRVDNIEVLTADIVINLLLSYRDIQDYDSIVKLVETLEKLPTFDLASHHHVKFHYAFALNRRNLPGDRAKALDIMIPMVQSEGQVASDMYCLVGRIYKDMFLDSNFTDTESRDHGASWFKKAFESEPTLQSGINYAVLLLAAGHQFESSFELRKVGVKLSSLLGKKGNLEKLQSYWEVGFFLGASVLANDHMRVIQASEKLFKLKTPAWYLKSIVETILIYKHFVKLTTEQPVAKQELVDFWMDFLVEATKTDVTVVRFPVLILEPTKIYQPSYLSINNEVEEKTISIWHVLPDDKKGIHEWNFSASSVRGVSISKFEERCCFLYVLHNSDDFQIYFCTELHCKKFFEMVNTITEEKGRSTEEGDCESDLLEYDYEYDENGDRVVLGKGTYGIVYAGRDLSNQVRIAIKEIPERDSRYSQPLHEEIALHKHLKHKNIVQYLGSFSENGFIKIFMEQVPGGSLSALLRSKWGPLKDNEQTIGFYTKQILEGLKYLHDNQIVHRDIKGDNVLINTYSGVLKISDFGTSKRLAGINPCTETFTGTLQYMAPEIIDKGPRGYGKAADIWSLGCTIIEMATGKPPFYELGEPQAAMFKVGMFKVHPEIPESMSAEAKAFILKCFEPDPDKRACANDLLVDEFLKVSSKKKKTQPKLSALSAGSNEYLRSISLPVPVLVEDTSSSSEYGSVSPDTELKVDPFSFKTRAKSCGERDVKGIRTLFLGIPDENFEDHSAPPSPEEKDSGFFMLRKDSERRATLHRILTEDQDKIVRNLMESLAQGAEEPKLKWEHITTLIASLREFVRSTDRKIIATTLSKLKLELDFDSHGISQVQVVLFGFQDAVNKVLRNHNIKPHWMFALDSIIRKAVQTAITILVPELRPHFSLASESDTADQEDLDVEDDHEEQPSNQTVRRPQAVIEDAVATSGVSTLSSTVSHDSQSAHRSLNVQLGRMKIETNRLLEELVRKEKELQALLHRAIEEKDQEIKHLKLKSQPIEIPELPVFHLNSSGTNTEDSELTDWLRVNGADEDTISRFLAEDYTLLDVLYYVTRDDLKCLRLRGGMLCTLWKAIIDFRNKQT
In short: as §1

[3] = target: T2, CDK16/T (Homo sapiens, UniProt Q00536)
T2 construct: AssayQuant Technologies, Inc. (ran the panel)
T2 sequence (Q00536 whole entry, species assumed): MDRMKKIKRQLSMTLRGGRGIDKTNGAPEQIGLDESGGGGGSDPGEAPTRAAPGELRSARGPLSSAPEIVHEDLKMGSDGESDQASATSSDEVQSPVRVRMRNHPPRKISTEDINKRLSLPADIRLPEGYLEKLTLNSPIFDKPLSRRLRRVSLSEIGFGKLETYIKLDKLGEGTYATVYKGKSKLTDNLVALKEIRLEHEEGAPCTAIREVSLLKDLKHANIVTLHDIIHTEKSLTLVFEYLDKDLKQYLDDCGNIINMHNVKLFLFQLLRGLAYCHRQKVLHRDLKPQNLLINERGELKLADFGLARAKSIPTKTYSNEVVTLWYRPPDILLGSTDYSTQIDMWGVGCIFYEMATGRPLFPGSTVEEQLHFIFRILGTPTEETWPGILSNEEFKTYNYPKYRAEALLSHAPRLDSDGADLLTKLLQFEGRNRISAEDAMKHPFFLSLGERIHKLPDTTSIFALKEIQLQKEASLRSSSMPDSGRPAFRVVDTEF
T2 sequence (Q8ND76 whole entry partner, species assumed): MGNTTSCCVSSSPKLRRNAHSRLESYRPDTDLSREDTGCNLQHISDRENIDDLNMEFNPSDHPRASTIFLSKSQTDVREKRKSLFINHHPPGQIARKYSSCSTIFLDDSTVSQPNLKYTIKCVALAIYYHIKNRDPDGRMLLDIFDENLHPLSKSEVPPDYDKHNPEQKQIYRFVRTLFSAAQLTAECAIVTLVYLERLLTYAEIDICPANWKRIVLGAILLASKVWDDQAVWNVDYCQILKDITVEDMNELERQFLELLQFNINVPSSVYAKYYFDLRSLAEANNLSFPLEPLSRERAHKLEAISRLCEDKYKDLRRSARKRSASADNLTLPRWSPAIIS
In short: as §1

[4] = target: T3, TAOK3 (Homo sapiens, UniProt Q9H2K8)
T3 construct: AssayQuant Technologies, Inc. (contract assay)
T3 sequence (Q9H2K8 1-898): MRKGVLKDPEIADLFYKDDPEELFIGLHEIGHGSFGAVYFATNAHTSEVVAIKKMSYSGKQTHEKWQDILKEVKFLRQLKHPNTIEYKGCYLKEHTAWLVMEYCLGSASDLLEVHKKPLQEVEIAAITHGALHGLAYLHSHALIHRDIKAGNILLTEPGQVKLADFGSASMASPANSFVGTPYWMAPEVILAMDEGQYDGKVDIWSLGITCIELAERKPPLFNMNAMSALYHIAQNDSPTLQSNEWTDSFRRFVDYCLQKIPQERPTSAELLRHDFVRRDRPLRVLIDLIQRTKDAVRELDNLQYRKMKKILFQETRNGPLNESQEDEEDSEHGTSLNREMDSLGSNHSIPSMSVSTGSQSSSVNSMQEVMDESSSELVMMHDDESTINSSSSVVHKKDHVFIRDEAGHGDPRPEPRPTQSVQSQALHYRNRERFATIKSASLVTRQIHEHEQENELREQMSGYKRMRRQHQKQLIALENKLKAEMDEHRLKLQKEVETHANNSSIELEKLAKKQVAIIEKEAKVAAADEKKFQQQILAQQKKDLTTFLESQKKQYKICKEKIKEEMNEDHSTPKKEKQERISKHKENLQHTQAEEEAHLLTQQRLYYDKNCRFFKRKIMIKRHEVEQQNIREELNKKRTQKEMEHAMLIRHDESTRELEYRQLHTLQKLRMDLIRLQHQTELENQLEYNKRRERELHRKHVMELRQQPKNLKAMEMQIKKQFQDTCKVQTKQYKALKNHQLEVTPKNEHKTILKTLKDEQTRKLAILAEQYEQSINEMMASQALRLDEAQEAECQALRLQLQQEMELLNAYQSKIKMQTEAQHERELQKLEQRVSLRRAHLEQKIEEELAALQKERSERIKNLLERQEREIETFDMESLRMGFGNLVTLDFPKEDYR
In short: as §1

Sequence of PRKCB1/PKCB1 (P05771 whole entry): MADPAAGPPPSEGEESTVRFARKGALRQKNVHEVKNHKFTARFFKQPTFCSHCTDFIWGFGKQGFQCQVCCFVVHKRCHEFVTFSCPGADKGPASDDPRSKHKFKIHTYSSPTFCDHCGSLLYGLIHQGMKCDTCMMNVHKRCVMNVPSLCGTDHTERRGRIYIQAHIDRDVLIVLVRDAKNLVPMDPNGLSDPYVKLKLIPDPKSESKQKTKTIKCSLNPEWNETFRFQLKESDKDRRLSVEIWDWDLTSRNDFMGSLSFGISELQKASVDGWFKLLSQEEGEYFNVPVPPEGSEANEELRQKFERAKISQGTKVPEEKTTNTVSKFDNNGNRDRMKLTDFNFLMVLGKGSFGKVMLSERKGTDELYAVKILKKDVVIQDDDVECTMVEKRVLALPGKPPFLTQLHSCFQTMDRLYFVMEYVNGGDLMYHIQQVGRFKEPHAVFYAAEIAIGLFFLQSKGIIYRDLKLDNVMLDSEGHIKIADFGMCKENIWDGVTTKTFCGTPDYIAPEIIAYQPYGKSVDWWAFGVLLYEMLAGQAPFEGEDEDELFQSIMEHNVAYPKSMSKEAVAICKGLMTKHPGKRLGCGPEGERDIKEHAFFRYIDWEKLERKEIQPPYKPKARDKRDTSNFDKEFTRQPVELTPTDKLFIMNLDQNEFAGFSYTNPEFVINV

## C=CC(=O)N1CCCC(c2c(F)cc(C(N)=O)c3[nH]c4c(c23)CCCCC4)C1 (single isomer, unassigned) [Compound 5-6]
[1]
  inhibition at 1 µM: 8.6%
[2]
  inhibition at 1 µM: -10.4%
[3]
  inhibition at 1 µM: 19.7%
[4]
  inhibition at 1 µM: 14.1%

## C=CC(=O)N1CCC[C@@H](c2c(F)cc(C(N)=O)c3[nH]c4c(c23)CC2(CC4)CC2)C1 [Compound 6-2, (S)-5-(1-acryloylpiperidin-3-yl)-6-fluoro-1,2,4,9-tetrahydrospiro[carbazole-3,1′-cyclopropane]-8-carboxamide]
[1]
  inhibition at 1 µM: 8.9%
[2]
  inhibition at 1 µM: 20%
[3]
  inhibition at 1 µM: -3.1%
[4]
  inhibition at 1 µM: 1.6%

## C=CC(=O)N1CCC[C@@H](c2c(F)cc(C(N)=O)c3[nH]c4c(c23)CCC4)C1 [Compound 10-2, (S)-8-(1-acryloylpiperidin-3-yl)-7-fluoro-1,2,3,4-tetrahydrocyclo-penta[b]indole-5-carboxamide]
[1]
  inhibition at 1 µM: -9.4%
[2]
  inhibition at 1 µM: 16.7%
[3]
  inhibition at 1 µM: -8.1%
[4]
  inhibition at 1 µM: -2.9%
